Here are results for 15 compounds from patent US20110275583A1, “Synergistic active compound combinations” (priority 2010, published 2011).

Format in all cases: in vivo
Assay [1] relates to larvae of the mustard beetle (Phaedon cochleariae). In words: Phaedon cochleariae larvae test (sprayed cabbage leaves). The settings on record: single active compound. From the text: (§1) The expected action for a given combination of two active compounds can be calculated as follows, using the formula of S. R. Colby, Weeds 15 (1967), 20-22: • If • X is the kill rate, expressed as % of the untreated control, when employing active compound A at an application rate of m g/ha or in a concentration of in ppm, • Y is the kill rate, expressed as % of the untreated control, when employing active compound B at an application rate of n g/ha or in a concentration of n ppm and • E is the kill rate, expressed as % of the untreated control, when employing active compounds A and B at application rates of m and n g/ha or in a concentration of m and n ppm, • then
(§2) If the actual kill rate exceeds the calculated value, the action of the combination is superadditive, i.e. a synergistic effect is present. In this case, the actually observed kill rate must exceed the value calculated using the above formula for the expected kill rate (E).
(§3) Solvent: 78 parts by weight of acetone • • 1.5 parts by weight of dimethylformamide
(§4) Emulsifier: 0.5 part by weight of alkylaryl polyglycol ether
(§5) To produce a suitable preparation of active compound, 1 part by weight of active compound is mixed with the stated amounts of solvent and emulsifier, and the concentrate is diluted with emulsifier-containing water to the desired concentration.
Cabbage leaves (Brassica oleracea) are treated by spraying with the active compound preparation of the desired concentration and populated with larvae of the mustard beetle (Phaedon cochleariae) while the leaves are still moist.
After the desired period of time, the kill in % is determined. 100% means that all beetle larvae have been killed; 0% means that none of the beetle larvae have been killed. The kill rates determined are entered into Colby's formula.

Assay [2] concerns armyworm (Spodoptera frugiperda). In words: Spodoptera frugiperda larvae test (sprayed cabbage leaves). The settings on record: single active compound.
From the text: as §1, §2, §3, §4, §5
Cabbage leaves (Brassica oleracea) are treated by being sprayed with the preparation of active compound of the desired concentration and are populated with the armyworm (Spodoptera frugiperda) while the leaves are still moist.
After the desired period of time, the kill in % is determined. 100% means that all caterpillars have been killed; 0% means that none of the caterpillars have been killed. The kill rates determined are entered, into Colby's formula.

Assay [3] has as its system greenhouse red spider mite (Tetranychus urticae). As to the kind of experiment: Tetranychus test, OP-resistant/spray treatment (bean leaf discs). The settings on record: single active compound.
From the text: as §1, §2, §3, §4, §5
Discs of bean leaves (Phaseolus vulgaris) which are infested by all stages of the greenhouse red spider mite (Tetranychus urticae) are sprayed with an active compound preparation of the desired concentration.
After the desired period of time, the effect in % is determined. 100% means that all of the spider mites have been killed; 0% means that none of the spider mites have been killed.

Assay [4] concerns green peach aphid (Myzus persicae). As to the kind of experiment: Myzus persicae test (spray treatment of infested cabbage leaves).
From the text: as §1, §2, §3, §4, §5
Cabbage leaves (Brassica oleracea) which are heavily infested by the green peach aphid (Myzus persicae) are treated by spraying with the active compound preparation of the desired concentration.
After the desired period of time, the kill in % is determined. 100% means that all of the aphids have been killed; 0% means that none of the aphids have been killed. The kill rates determined are entered into Colby's formula.

The mark [5] stands for this setting: Spodoptera frugiperda, 48 h, 2 d, read-out: Kill in % after 2 d.
Setting [6] is: Tetranychus urticae, foliar, 144 h, 6 d, read-out: Kill in % after 6 d.
Where [7] appears, read: Spodoptera frugiperda, 144 h, 4 g/ha, 6 d, read-out: Kill in % after 6 d.
The mark [8] stands for this setting: Myzus persicae, 24 h, 0.8 g/ha, after 1 d, read-out: Kill in % after 1d.
Where [9] appears, read: Phaedon cochleariae, 48 h, 0.8 g/ha, 2 d, read-out: Kill in % after 2 d.
[10] abbreviates: Myzus persicae, 24 h, after 1 d, read-out: Kill in % after 1d.
Where [11] appears, read: Phaedon cochleariae, 144 h, 0.8 g/ha, 6 d, read-out: Kill in % after 6 d.
[12] abbreviates: Spodoptera frugiperda, 144 h, 0.16 g/ha, 6 d, read-out: Kill in % after 6 d.
Setting [13] is: Spodoptera frugiperda, 144 h, 6 d, read-out: Kill in % after 6 d.

Like-named read-outs stand apart in the source and are kept apart here.

In the case of `CNC(=O)Oc1cc(C)c(SC)c(C)c1` [methiocarb], the pest or weed control at 100 g/ha came out at 50% in assay [1] (Phaedon cochleariae, 48 h, 2 d, read-out: Kill in % after 2 d) and 0% in assay [2] (setting [5]).

Turning to `FC(F)(F)c1ccc(OCCCOc2c(Cl)cc(OCC=C(Cl)Cl)cc2Cl)nc1` [pyridalyl], the pest or weed control at 20 g/ha in assay [3] (setting [6]) is 10%. For the same compound, the pest or weed control at 0.8 g/ha in assay [4] (Myzus persicae, 144 h, 0.8 g/ha, single active compound, 6 d, read-out: Kill in % after 6 d) was found to be 0%. Also, the pest or weed control at 4 g/ha in assay [2] (setting [7]) is 17%.

As for `CNC(=O)c1cc(Cl)cc(C)c1NC(=O)c1cc(Br)nn1-c1ncccc1Cl` [chloranthraniliprole, chlorantraniliprole], the values for the pest or weed control at 0.8 g/ha in assay [4] (setting [8]) and in assay [1] (setting [9]) were 0% and 67%, respectively. The pest or weed control at 4 g/ha in assay [2] (Spodoptera frugiperda, 48 h, 4 g/ha, 2 d, read-out: Kill in % after 2 d) amounted to 67%.

For the compound `O=C(NC(=O)c1c(F)cccc1F)Nc1cc(Cl)c(OC(F)(F)C(F)C(F)(F)F)cc1Cl` (centres unmarked) [lufenuron], the pest or weed control at 100 g/ha in assay [1] (Phaedon cochleariae, 144 h, 6 d, read-out: Kill in % after 6 d) stood at 33%. For the same compound, the pest or weed control at 4 g/ha in assay [2] (setting [7]) is 0%.

Regarding `N#Cc1nn(-c2c(Cl)cc(C(F)(F)F)cc2Cl)c(N)c1[S+]([O-])C(F)(F)F` (centres unmarked) [fipronil], the pest or weed control at 100 g/ha in assay [3] (Tetranychus urticae, foliar, 144 h, 100 g/ha, 6 d, read-out: Kill in % after 6 d) was 0%. For the same compound, the pest or weed control at 0.8 g/ha in assay [1] (setting [9]) came to 50%. Further, the pest or weed control at 4 g/ha in assay [2] (setting [7]) was 0%.

For the compound `CC1(C)C(/C=C(\Cl)C(F)(F)F)C1C(=O)OC(C#N)c1cccc(Oc2ccccc2)c1` [L-cyhalothrin, lambda-cyhalothrin], the pest or weed control at 0.8 g/ha in assay [3] (Tetranychus urticae, foliar, 144 h, 0.8 g/ha, 6 d, read-out: Kill in % after 6 d) was 0%; in assay [1] (setting [11]), 33%; in assay [2] (setting [13]), 50%. For the same compound, the pest or weed control at 4 g/ha in assay [3] (setting [6]) stood at 80%. Moreover, the pest or weed control at 0.032 g/ha in assay [4] (setting [10]) stood at 0%. For the same compound, the pest or weed control at 0.16 g/ha in assay [2] (setting [12]) was 0%.

As for emamectin benzoate, the “Kill in % after 2 d” value in assay [3] (0.032 g/ha, 2 d) is on record as 0%; in assay [1] (0.8 g/ha, 2 d), 50%; in assay [2] (0.16 g/ha, 2 d), 0%. Also, the “Kill in % after 6 d” value in assay [4] (0.16 g/ha, single active compound, 6 d) stood at 0%. Also, the “Kill in % after 1d” value in assay [4] (0.8 g/ha, after 1 d) is listed as 0%.

For `CCOP(=S)(OCC)Oc1nc(Cl)c(Cl)cc1Cl` [chlorpyrifos], the “Kill in % after 6 d” value worked out at 0% in assay [3] (100 g/ha, 6 d) and 0% in assay [2] (4 g/ha, 6 d).

On to `CC1(C)[C@H](C(=O)O[C@H](C#N)c2cccc(Oc3ccccc3)c2)[C@@H]1C=C(Br)Br` [deltamethrin], for which the pest or weed control at 0.032 g/ha amounted to 70% in assay [4] (setting [10]) and 33% in assay [2] (Spodoptera frugiperda, 144 h, 0.032 g/ha, 6 d, read-out: Kill in % after 6 d). Moreover, the pest or weed control at 0.8 g/ha in assay [1] (setting [9]) is 67%.

`COC(=O)N(C(=O)N1COC2(C(=O)OC)Cc3cc(Cl)ccc3C2=N1)c1ccc(OC(F)(F)F)cc1` (centres unmarked) [indoxacarb]: the pest or weed control at 0.8 g/ha in assay [1] (setting [11]) was found to be 0%. The pest or weed control at 100 g/ha in assay [2] (setting [5]) is 50%.

For `CC1(C)C(C=C(Cl)Cl)C1C(=O)OC(C#N)c1cccc(Oc2ccccc2)c1` (stereo not drawn) [alpha-cypermethrin], the pest or weed control at 0.16 g/ha in assay [4] (Myzus persicae, 24 h, 0.16 g/ha, after 1 d, read-out: Kill in % after 1d) is 0%. The pest or weed control at 4 g/ha in assay [1] (Phaedon cochleariae, 144 h, 4 g/ha, 6 d, read-out: Kill in % after 6 d) came out at 67%. For the same compound, the pest or weed control at 0.8 g/ha in assay [2] (setting [13]) is 33%.

As to `CC1(C)C(C=C(Cl)Cl)C1C(=O)OC(C#N)c1ccc(F)c(Oc2ccccc2)c1` (stereo not drawn) [β-cyfluthrin, beta-cyfluthrin], the pest or weed control at 4 g/ha in assay [3] (setting [6]) came to 0%. Also, the pest or weed control at 0.032 g/ha in assay [4] (setting [10]) was determined as 0%. The pest or weed control at 0.8 g/ha in assay [1] (setting [11]) is 33%. Besides, the pest or weed control at 0.16 g/ha in assay [2] (setting [12]) amounted to 0%.

For `CNC(=O)c1cc(C#N)cc(C)c1NC(=O)c1cc(Br)nn1-c1ncccc1Cl` [Cyazypyr, cyantraniliprole], in assay [3] (Tetranychus urticae, foliar, 48 h, 2 d, read-out: Kill in % after 2 d), the pest or weed control at 20 g/ha amounted to 0%. Moreover, the pest or weed control at 0.8 g/ha was 0% in assay [4] (setting [8]), 50% in assay [1] (setting [9]) and 50% in assay [2] (setting [13]). The pest or weed control at 0.16 g/ha in assay [1] (Phaedon cochleariae, 144 h, 0.16 g/ha, 6 d, read-out: Kill in % after 6 d) was determined as 33%.

`N#Cc1ccc(CC(=NNC(=O)Nc2ccc(OC(F)(F)F)cc2)c2cccc(C(F)(F)F)c2)cc1` (mixture of isomers) [metaflumizone]: the pest or weed control at 4 g/ha in assay [4] (Myzus persicae, 144 h, 4 g/ha, single active compound, 6 d, read-out: Kill in % after 6 d) is 0%. The pest or weed control at 100 g/ha in assay [2] (setting [5]) was 0%.

As for `CNC(=O)O/N=C/C(C)(C)SC` [aldicarb], the pest or weed control at 100 g/ha in assay [3] (Tetranychus urticae, foliar, 48 h, 100 g/ha, 2 d, read-out: Kill in % after 2 d) is 0%; in assay [2] (setting [13]), 0%.
